Data on four molecules can be found in paper PMC7966211, “Cooperativity of membrane-protein and protein–protein interactions control membrane remodeling by epsin 1 and affects clathrin-mediated endocytosis” (Cellular and Molecular Life Sciences: CMLS, 2020).

The target of data set [1] is T1, ENTH domain of epsin1 (ENTH^WT; Rat Epsin1 WT ENTH 1–164) (Rattus norvegicus, UniProt O88339).
T1 construct: gene Epn1; ENTH domain residues 1-164, pGEX-6P-2, expressed in E. coli BL21(DE3), GST tag cleaved with PreScission protease
T1 sequence (O88339 1-164): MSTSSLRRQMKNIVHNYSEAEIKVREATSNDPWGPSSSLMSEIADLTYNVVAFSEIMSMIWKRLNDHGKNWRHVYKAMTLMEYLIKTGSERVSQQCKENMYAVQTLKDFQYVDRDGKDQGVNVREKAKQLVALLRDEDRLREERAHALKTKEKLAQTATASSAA
As to the kind of experiment: reflectometric interference spectroscopy (RIfS), Langmuir adsorption isotherm. The class given is binding. The settings on record: PI(4,5)P2 in supported POPC/PI(4,5)P2 (95:5) bilayer without PS; PBS pH 7.4; apparent membrane dissociation constant in protein concentration. The source says: (§1) reflectometric interference spectroscopy (RIfS), Langmuir adsorption isotherm on ENTH domain of epsin1 (ENTH^WT; Rat Epsin1 WT ENTH 1–164)

Data set [2] addresses T2, ENTH domain of epsin1 (ENTH^WT; Rat Epsin1 WT ENTH 1–164) (Rattus norvegicus, UniProt O88339, R114A).
T2 construct: gene Epn1; ENTH domain residues 1-164, pGEX-6P-2, expressed in E. coli BL21(DE3), GST tag cleaved with PreScission protease
T2 sequence (O88339 1-164 R114A): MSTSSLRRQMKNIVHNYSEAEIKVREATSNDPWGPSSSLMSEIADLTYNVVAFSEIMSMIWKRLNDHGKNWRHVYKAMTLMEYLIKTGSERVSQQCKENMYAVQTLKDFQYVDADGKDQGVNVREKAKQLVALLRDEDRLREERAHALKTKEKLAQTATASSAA
The description is as above. The class given is binding. As to conditions: PI(4,5)P2 in supported POPC/PI(4,5)P2 (95:5) bilayer without PS; PBS pH 7.4; apparent membrane dissociation constant in protein concentration.
Description: as §1

The target of data set [3] is T1, ENTH domain of epsin1 (ENTH^WT; Rat Epsin1 WT ENTH 1–164). Briefly: LUV co-sedimentation with SDS-PAGE, electron microscopy, DLS: partial restoration of oligomerization and membrane remodeling. The class given is biochemical. As to conditions: 4 times molar excess of L-SOP to ENTH; PS-free PC/PE/PI(4,5)P2 (65:30:5) LUVs; effect on oligomerization, binding not measured directly.

Data set [4] concerns the molecule itself. As to the kind of experiment: SDS-resistant oligomers on SDS-PAGE after liposome co-sedimentation; 20 µM protein with 2 mg/ml LUVs that contain PS (Folch + PI(4,5)P2, or PC/PE/PS/PI(4,5)P2 with 5-20% PS), 3 h 30 °C, HEPES buffer, 205,000 x g, pellet and supernatant on SDS-PAGE; self-association on membranes.
Data set [5] deals with the molecule itself. As to the kind of experiment: FRET or BRET; Atto488-labeled (donor) and Atto532-labeled (acceptor) ENTH domains, total 5 and 15 µM, in 2 mg/ml LUV suspension; LUVs PC/PE/PS/PI(4,5)P2 (45:30:20:5) compared with PS-free PC/PE/PI(4,5)P2 (65:30:5), on which the wild type gave reduced FRET; excitation 493 nm. In general terms: In BRET a luciferase serves as donor, and the signal depends on an acceptor being close.

Regarding PI(4,5)P2, the Kd in data set [1] is 1000 ± 200 nM; in data set [2], 2900 ± 800 nM.

Turning to `N[C@@H](COP(=O)(O)O)C(=O)O` [L-SOP], in data set [3], the “LUV co-sedimentation with SDS-PAGE, electron microscopy, DLS: partial restoratio” value was “presence of the PS headgroup was sufficient to partially restore oligomerization and membrane remodeling”.

B1: Rat Epsin1 WT ENTH 1-164 (domain or fragment, UniProt O88339 1-164, looked up)
chain: MSTSSLRRQMKNIVHNYSEAEIKVREATSNDPWGPSSSLMSEIADLTYNVVAFSEIMSMIWKRLNDHGKNWRHVYKAMTLMEYLIKTGSERVSQQCKENMYAVQTLKDFQYVDRDGKDQGVNVREKAKQLVALLRDEDRLREERAHALKTKEKLAQTATASSAA
notes: Epsin 1, rat, ENTH (epsin N-terminal homology) domain, residues 1-164; Expressed from pGEX-6P-2; also called ENTH domain; ENTH^WT; source: E. coli BL21(DE3), purified (GSTrap, GST cleaved with PreScission Protease, anion exchange, SEC)
For the molecule B1, the binding result in data set [4] is given as “binds”.

B2: ENTH WT (C96A A155C), fluorescently labeled (domain or fragment, rat, UniProt O88339 1-164, looked up)
chain: MSTSSLRRQMKNIVHNYSEAEIKVREATSNDPWGPSSSLMSEIADLTYNVVAFSEIMSMIWKRLNDHGKNWRHVYKAMTLMEYLIKTGSERVSQQAKENMYAVQTLKDFQYVDRDGKDQGVNVREKAKQLVALLRDEDRLREERAHALKTKEKLCQTATASSAA
modifications: Atto488 maleimide (donor population) or Atto532 maleimide (acceptor population) by cysteine modification
notes: Epsin 1, rat, ENTH domain, residues 1-164, with C96A and A155C for labeling; Two populations of the same construct, one with Atto488 and one with Atto532, were mixed for FRET; also called ENTH-Atto-488; ENTH-Atto-532; source: E. coli BL21(DE3), purified (GSTrap, GST cleaved with PreScission Protease, anion exchange, SEC), then labeled
For the molecule B2, the binding result in data set [5] is listed as “binds”.
